Test results reported in US20240173317A1, “METHODS FOR TREATING PROGRESSIVE FAMILIAL INTRAHEPATIC CHOLESTASIS” (MIRUM PHARMACEUTICALS, INC., priority 2022, published 2024).

Tests used:
participants with ALGS = assay: TEAEs in participants with ALGS aged 16 years and older; format: in vivo, human
Excerpt: The efficacy and safety of MRX in participants with ALGS aged ≥16 years transitioning to adult care and participant aged ≥16 years who initiate MRX treatment were studied (FIG. 30). The median (min, max) duration of therapy for participants who initiated MRX at <16 years of age was 4.1 years (1.5, 5.9), with the oldest patient taking MRX (Table 13). Three participants began MRX at ≥16 years of age and were followed for a median of 3.8 years.

subjects with PFIC = assay: Treatment-emergent adverse events (TEAEs), MARCH-PFIC Phase 3 study; format: in vivo
Excerpt: A TEAE can therefore be any unfavorable and unintended sign (including an abnormal laboratory finding), symptom, or disease temporally associated with the use of a medicinal (investigational) product, whether or not related to the medicinal (investigational) product (ICH Guidance E2A 1995). All TEAEs are collected from the time the informed consent is signed until the defined follow-up period. This includes events occurring during the screening phase of the study, regardless of whether or not study medication is administered.
A serious adverse event (SAE) is any untoward medical occurrence (whether considered to be related to study medication or not) that at any dose: 1) Results in death; 2) Is life-threatening; 3) Requires inpatient hospitalization or prolongation of existing hospitalization; 4) Results in persistent or significant disability/incapacity; or 5) Is an important medical event.
All SAEs (regardless of relationship to study) are collected from the time the subject signs the informed consent until the defined follow-up period and must be reported within 24 hours of the first awareness of the event.

[1] = ALGS, aged <16 y at MRX initiation (n = 11), After 16 y
[2] = ALGS, aged <16 y at MRX initiation (n = 11), Before 16 y
[3] = ALGS, aged >16 y at MRX initiation (n = 3)
[4] = MARCH, all PFIC cohorts, Maralixibat (n = 47)
[5] = MARCH, all PFIC cohorts, Maralixibat (n = 47), listed as Maralixibat
[6] = among the 8 participants receiving MRX who had transaminase elevations

Compound: CCCCC1(CCCC)CS(=O)(=O)c2ccc(N(C)C)cc2[C@@H](c2ccc(OCc3ccc(C[N+]45CCN(CC4)CC5)cc3)cc2)[C@H]1O [maralixibat, 1-(4-((4-((4R,5R)-3,3-dibutyl-7-(dimethylamino)-4-hydroxy-1,1-dioxido-2,3,4,5-tetrahydrobenzo[b]thiepin-5-yl)phenoxy)methyl)benzyl)-1,4-diazabicyclo[2.2.2]octan-1-ium]
- tolerability (participants with ALGS; ALGS participants aged 16 years and older): generally well tolerated
- Any TEAEs, % (participants with ALGS; [1]): (63.6) %
- Gastrointestinal TEAEs: Abdominal pain, % (participants with ALGS; [1]): (18.2) %
- Gastrointestinal TEAEs: Diarrhoea, % (participants with ALGS; [1]): (9.1) %
- SAEs, % (participants with ALGS; [1]): (9.1) %
- TEAEs > grade 3, % (participants with ALGS; [1]): (9.1) %
- Treatment-related AEs, % (participants with ALGS; [1]): (18.2) %
- Any TEAEs, % (participants with ALGS; [2]): (100) %
- Gastrointestinal TEAEs: Abdominal pain, % (participants with ALGS; [2]): (45.5) %
- Gastrointestinal TEAEs: Diarrhoea, % (participants with ALGS; [2]): (54.5) %
- SAEs, % (participants with ALGS; [2]): (18.2) %
- TEAEs > grade 3, % (participants with ALGS; [2]): (9.1) %
- Treatment-related AEs, % (participants with ALGS; [2]): (81.8) %
- Any TEAEs, % (participants with ALGS; [3]): (100) %
- Gastrointestinal TEAEs: Diarrhoea, % (participants with ALGS; [3]): (33.3) %
- TEAEs > grade 3, % (participants with ALGS; [3]): (33.3) %
- Treatment-related AEs ≥ grade 3, % (participants with ALGS; [3]): (33.3) %
- Treatment-related AEs, % (participants with ALGS; [3]): (66.7) %
- median duration of diarrhea (subjects with PFIC; MARCH): 5.5 days
- patients who discontinued MRX due to transaminase elevation (subjects with PFIC; MARCH): No patients
- tolerability (subjects with PFIC; MARCH): well-tolerated
- Any TEAE, % (subjects with PFIC; [4]): (100%)
- Diarrhoea related to study drug, % (subjects with PFIC; [4]): (27.7%)
- GI disorders (most common TEAEs), % (subjects with PFIC; [4]): 74.5%
- GI events potentially related to study drug, % (subjects with PFIC; [4]): (29.8%)
- Grade 3/4 TEAE, % (subjects with PFIC; [4]): (6.4%)
- Serious TEAE (SAE), % (subjects with PFIC; [4]): 10.6%
- TEAE leading to discontinuation, % (subjects with PFIC; [4]): (2.1%)
- TEAE potentially related to study drug, % (subjects with PFIC; [4]): (38.3%)
- Serious TEAE (SAE), % (subjects with PFIC; MARCH, all PFIC cohorts, Maralixibat (n = 47), listed as MRX): 10.6%
- Diarrhoea, % (subjects with PFIC; [5]): (57.4%)
- Serious TEAE (SAE), % (subjects with PFIC; [5]): (10.6%)
- Constipation, % (subjects with PFIC; MARCH, MRX (n = 47)): (8.5) %
- Gastroenteritis, % (subjects with PFIC; MARCH, MRX (n = 47)): (6.4) %
- Haematochezia, % (subjects with PFIC; MARCH, MRX (n = 47)): (6.4) %
- Increased ALT, % (subjects with PFIC; MARCH, MRX (n = 47)): (12.8) %
- Vomiting, % (subjects with PFIC; MARCH, MRX (n = 47)): (6.4) %
- participants with resolution of the transaminase elevation without drug interruption (subjects with PFIC; [6]): 6
- patients with ongoing stable transaminase elevation even after drug interruption or dose reduction (subjects with PFIC; [6]): 2
